In ChEMBL document CHEMBL1138924, “Crystal structure, spectroscopic, and biological study of the copper(II) complex with third-generation quinolone antibiotic sparfloxacin” (2006):
Values after ≈ are worked out from the molar mass of the structure shown.

Tests used:
Assay type in all cases: functional
Escherichia coli = test: Antimicrobial activity against Escherichia coli
Pseudomonas aeruginosa = test: Antimicrobial activity against Pseudomonas aeruginosa
Staphylococcus aureus = test: Antimicrobial activity against Staphylococcus aureus

SMILES: C[C@@H]1CN(c2c(F)c(N)c3c(=O)c(C(=O)O)cn(C4CC4)c3c2F)C[C@H](C)N1 [SPARFLOXACIN]
- MIC (Escherichia coli): 8 µg/mL (≈ 20.4 µM)
- MIC (Pseudomonas aeruginosa): 0.25 µg/mL (≈ 0.637 µM)
- MIC (Staphylococcus aureus): 0.5 µg/mL (≈ 1.27 µM)
